From patent US9352015B2, “Antimicrobial peptides” (priority 2009, dated 2016)
In brackets after ≈: the same amount, converted by molar mass. Several values for one entry are separate records, joined by “and”; a condition that tells them apart may be missing. Equal values may be shown once. Read-outs that look alike come from different tables or passages of the source.

Tests used:
Pseudomonas aeruginosa = conditions: for Pseudomonas aeruginosa MICGM: geometric mean, 6 different isolates, 24 hours at 37° C.; for MIC PAO 1: 37° C., 24 h, strain PAO1; for MIC GM (geometric mean of the MIC values): six P. aeruginosa strains; for MIC CP 204: strain CP204; for MIC M 2: strain M2; for MIC PA 14: strain PA14; for MIC PAK: strain PAK; for MIC WR 5: strain WR5
Acinetobacter baumannii = assay type: cell-based; conditions: for Acinetobacter baumannii MICGM: geometric mean, 11 different isolates, 24 hours at 37° C.
Procedure: (§1) Minimal inhibitory concentrations (MICs) are determined using a standard microtiter dilution method, with 3 sets of determinations, in LB (Luria-Bertani) no-salt medium (10 g of tryptone and 5 g of yeast extract per liter). In some cases, Mueller Hinton (MH) medium or Brain Heart Infusion (BHI) medium is used.
(§2) Briefly, cells were grown overnight at 37° C. in LB and diluted in the same medium. Serial dilutions of the peptides are added to the microtiter plates in a volume of 100 μl followed by 10 μl of bacteria to give a final inoculum of 5×10^5 colony-forming units/ml. Plates are incubated at 37° C. for 24 hours and MICs determined as the lowest peptide concentration that inhibited growth. Alternatively, minimal inhibitory concentrations are determined using a standard microtiter dilution method in a Mueller-Hinton (MH) medium. Briefly, cells are grown overnight at 37° C. in MH broth and diluted in the same medium. In some cases, serial dilutions of the peptides are added to the microtiter plates in a volume of 100 μl followed by 10 μl of bacteria to give a final inoculum of 1×10^5 colony-forming units/ml. Plates are incubated at 37° C. for 24 hours and MICs are determined as the lowest peptide concentration that inhibited growth.
The biological activities of these six peptide analogs was determined against 11 clinical isolated of Acinetobacter baumannii (Table 9). Please note that the activities are reported in micromolar rather than microgram/ml. This allows a direct comparison on a molar basis with the effectiveness of molecules of different molecular weights whether peptides disclosed herein or antibiotics which in general are smaller in molecular mass. […] These are the highest antimicrobial activities observed in studies of antimicrobial peptides derived by modifying the peptide sequence of SEQ ID NO:24 (D1). D22 has the best hemolytic activity of the six analogs (D17-D22) and a therapeutic index of […] compared to […] for D1 (Table 9). D22 has no apparent advantage over D1 as determined in these experiments.

human erythrocytes = assay: Hemolytic activity against human erythrocytes (HC50 / MHC, microtiter dilution); assay type: cell-based
Procedure: (§3) Hemoglobin release was determined spectrophotometrically at 570 nm. The hemolytic activity was determined as the peptide concentration that caused 50% hemolysis of erythrocytes after 18 h (HC50). […] HC50 was determined by a plot of peptide concentration versus percent lysis.

[1] = system: Methicillin Resistant Staphylococcus aureus (MRSA) and Staphylococcus aureus; assay type: cell-based
Procedure: as §1, §2
Identification of Antimicrobial Peptides for Gram-positive Bacteria. In a manner similar to testing against gram-negative bacteria, experiments were carried out to screen the 14 peptides used to identify antimicrobial peptides with significant activity against A. baumanii shown above against 20 different clinical isolates of Methicillin Resistant Staphylococcus aureus (MRSA) and Staphylococcus aureus.

[2] = RP-HPLC temperature profiling (peptide self-association parameter PA); assay type: physicochemical; conditions: RP-HPLC temperature profiling 5-80° C., pH 2, relative to control peptide C
Procedure: Temperature profiling analyses were performed on the same column in 3° C. increments, from 5° C. to 80° C., using a linear AB gradient of 0.5% acetonitrile/min, as described previously (30, 53, 92, 93).
Peptide self-association (i.e., the ability to oligomerize/dimerize) in aqueous solution is a very important parameter for antimicrobial activity (53, 92, 93). Without wishing to be bound by any particular theory, the present inventors postulated that monomeric random-coil antimicrobial peptides are best suited to pass through the capsule and cell wall of microorganisms prior to penetration into the cytoplasmic membrane, induction of α-helical structure and disruption of membrane structure to kill target cells (93). Thus, if the self-association ability of a peptide in aqueous media is too strong (e.g., forming stable folded dimers through interaction of their non-polar faces) this could decrease the ability of the peptide to dissociate to monomer, in addition oligomerization of the peptide can prevent it from effectively passing through the capsule and cell wall to reach the membrane. The ability of the peptides in the present study to self-associate was determined by the technique of RP-HPLC temperature profiling at pH 2 (29, 30, 38). The reason pH 2 is used to determine self-association of cationic AMPs is that highly positively charged peptides are frequently not eluted from reversed-phase columns at pH 7 due to non-specific binding to negatively charged silanols on the column matrix. This is not a problem at pH 2 since the silanols are protonated (i.e., neutral) and non-specific electrostatic interactions are eliminated. At pH 2, the interactions between the peptide and the reversed-phase matrix involve ideal retention behavior, i.e., only hydrophobic interactions between the preferred binding domain (nonpolar face) of the amphipathic molecule and the hydrophobic surface of the column matrix are present (39). […] Control peptide C is a monomeric random coil peptide in both aqueous and hydrophobic media; thus, its linear decrease in peptide retention behavior with increasing temperature within the range of 5° C. to 80° C. represents only the general effects of temperature due to greater solute diffusivity and enhanced mass transfer between the stationary and mobile phase at higher temperatures (55). To allow for these general temperature effects, the data for the control peptide was subtracted from each temperature profile as shown in FIG. 2B. Thus, the peptide self-association parameter, PA, represents the maximum change in peptide retention time relative to the random coil peptide C. Note that the higher the PA value, the greater the self-association.

[3] = RP-HPLC retention as measure of overall peptide hydrophobicity; assay type: physicochemical; conditions: pH 2, room temperature
Procedure: Crude and purified peptides were analyzed on an Agilent 1100 series liquid chromatograph (Little Falls, Del.). Runs were performed on a Zorbax 300 SB-C8 column (150×2.1 mm I.D.; 5 μm particle size, 300 Å pore size) from Agilent Technologies using linear AB gradient (1% acetonitrile/min) and a flow rate of 0.25 ml/min, where eluant A was 0.2% aqueous TFA, pH 2 and eluant B was 0.2% TFA in acetonitrile.

[4] = Hemolytic activity against human erythrocytes (HC50 / MHC, microtiter dilution); assay type: cell-based; conditions: human, 1% human erythrocytes, pH 7.4
Procedure: as §3

Row | Pseudomonas aeruginosa MICGM (Pseudomonas aeruginosa) | MIC GM (geometric mean) [1] | PA (dimerization / self-association parameter) [2] | MIC PAO 1 (Pseudomonas aeruginosa; Brain Heart Infusion medium) | MIC GM (geometric mean of the MIC values) (Pseudomonas aeruginosa; Brain Heart Infusion medium) | MIC CP 204 (Pseudomonas aeruginosa; Brain Heart Infusion medium) | MIC M 2 (Pseudomonas aeruginosa; Brain Heart Infusion medium) | MIC PA 14 (Pseudomonas aeruginosa; Brain Heart Infusion medium) | MIC PAK (Pseudomonas aeruginosa; Brain Heart Infusion medium) | MIC WR 5 (Pseudomonas aeruginosa; Brain Heart Infusion medium) | MIC PAO 1 (Pseudomonas aeruginosa; Mueller Hinton medium) | MIC GM (geometric mean of the MIC values) (Pseudomonas aeruginosa; Mueller Hinton medium) | MIC CP 204 (Pseudomonas aeruginosa; Mueller Hinton medium) | MIC M 2 (Pseudomonas aeruginosa; Mueller Hinton medium) | MIC PA 14 (Pseudomonas aeruginosa; Mueller Hinton medium) | MIC PAK (Pseudomonas aeruginosa; Mueller Hinton medium) | MIC WR 5 (Pseudomonas aeruginosa; Mueller Hinton medium) | MIC GM (geometric mean) (Acinetobacter baumannii) | Hydrophobicity (retention time in RP-HPLC) [3] | SMILES | HC50 at 18 h [4] | also measured
1 | 2 µM |  |  |  |  |  |  |  |  |  |  |  |  |  |  |  |  |  |  | CC(=O)N[C@H](CCCCN)C(=O)N[C@H](CC(C)C)C(=O)N[C@H](CCCCN)C(=O)N[C@H](CO)C(=O)N[C@H](CC(C)C)C(=O)N[C@H](CC(C)C)C(=O)N[C@H](CCCCN)C(=O)N[C@@H](C(=O)N[C@H](CC(C)C)C(=O)N[C@H](CO)C(=O)N[C@H](CCCCN)C(=O)N[C@H](CC(C)C)C(=O)N[C@H](CCCCN)C(=O)N[C@H](CCCCN)C(=O)N[C@H](CCCCN)C(=O)N[C@H](CCCCN)C(=O)N[C@H](CC(C)C)C(=O)N[C@H](CCCCN)C(=O)N[C@@H](C(=O)N[C@H](CC(C)C)C(=O)N[C@H](CC(C)C)C(=O)N[C@H](CCCCN)C(=O)N[C@H](C)C(=O)N[C@H](CC(C)C)C(=O)N[C@H](CO)C(=O)N[C@H](CCCCN)C(N)=O)[C@H](C)O)[C@H](C)O [Peptide D23, Ac-KLKSLLKTLSKLKKKKLKTLLKALSK-amide] |  | Acinetobacter baumannii MICGM (Acinetobacter baumannii): 0.8 µM; Hemolytic activity HC50 (human erythrocytes): 186 µM
2 |  | 19.7 µM (≈ 56.3 µg/mL) | 7.96 | 31.3 µg/mL (≈ 11 µM) | 35.1 µg/mL | 62.5 µg/mL (≈ 21.9 µM) | 31.3 µg/mL (≈ 11 µM) | 15.6 µg/mL (≈ 5.46 µM) | 31.3 µg/mL (≈ 11 µM) | 62.5 µg/mL (≈ 21.9 µM) | 15.6 µg/mL (≈ 5.46 µM) | 22.1 µg/mL | 31.3 µg/mL (≈ 11 µM) | 31.3 µg/mL (≈ 11 µM) | 15.6 µg/mL (≈ 5.46 µM) | 15.6 µg/mL (≈ 5.46 µM) | 31.3 µg/mL (≈ 11 µM) | 0.7 µM (≈ 2 µg/mL) | 98.81 min | CC[C@@H](C)[C@@H](NC(=O)[C@@H](C)NC(=O)[C@@H](CO)NC(=O)[C@@H](CC(C)C)NC(=O)[C@@H](CC(C)C)NC(=O)[C@H](NC(=O)[C@@H](CCCCN)NC(=O)[C@@H](CC(C)C)NC(=O)[C@@H](C)NC(=O)[C@@H](CCCCN)NC(=O)[C@@H](CCCCN)NC(=O)[C@@H](CCCCN)NC(=O)[C@@H](C)NC(=O)[C@@H](CCCCN)NC(=O)[C@@H](CO)NC(=O)[C@@H](Cc1ccccc1)NC(=O)[C@H](NC(=O)[C@@H](CO)NC(=O)[C@@H](CC(C)C)NC(=O)[C@@H](Cc1ccccc1)NC(=O)[C@@H](CO)NC(=O)[C@@H](CO)NC(=O)[C@@H](Cc1c[nH]c2ccccc12)NC(=O)[C@@H](CO)NC(C)=O)[C@H](C)O)[C@H](C)O)C(=O)N[C@H](CO)C(=O)N[C@H](CO)C(N)=O [Peptide D17, Ac-SWSSFLSTFSKAKKKALKTLLSAISS-amide] | 62 µg/mL and 21.7 µM | MIC (Acinetobacter baumannii; 24 h): 0.7 µM (≈ 2 µg/mL)
3 |  | 7.3 µM (≈ 22.1 µg/mL) | 6.00 | 15.6 µg/mL (≈ 5.16 µM) | 6.2 µg/mL | 15.6 µg/mL (≈ 5.16 µM) | 3.9 µg/mL (≈ 1.29 µM) | 3.9 µg/mL (≈ 1.29 µM) | 3.9 µg/mL (≈ 1.29 µM) | 3.9 µg/mL (≈ 1.29 µM) | 7.8 µg/mL (≈ 2.58 µM) | 6.2 µg/mL | 15.6 µg/mL (≈ 5.16 µM) | 15.6 µg/mL (≈ 5.16 µM) | 0.5 µg/mL (≈ 0.165 µM) | 3.9 µg/mL (≈ 1.29 µM) | 15.6 µg/mL (≈ 5.16 µM) | 1.1 µM (≈ 3.33 µg/mL) | 93.77 min | CC[C@@H](C)[C@@H](NC(=O)[C@@H](C)NC(=O)[C@@H](CCCCN)NC(=O)[C@@H](CC(C)C)NC(=O)[C@@H](CC(C)C)NC(=O)[C@H](NC(=O)[C@@H](CCCCN)NC(=O)[C@@H](CC(C)C)NC(=O)[C@@H](C)NC(=O)[C@@H](CCCCN)NC(=O)[C@@H](CCCCN)NC(=O)[C@@H](CCCCN)NC(=O)[C@@H](C)NC(=O)[C@@H](CCCCN)NC(=O)[C@@H](CO)NC(=O)[C@@H](Cc1ccccc1)NC(=O)[C@H](NC(=O)[C@@H](CCCCN)NC(=O)[C@@H](CC(C)C)NC(=O)[C@@H](Cc1ccccc1)NC(=O)[C@@H](CO)NC(=O)[C@@H](CCCCN)NC(=O)[C@@H](Cc1c[nH]c2ccccc12)NC(=O)[C@@H](CO)NC(C)=O)[C@H](C)O)[C@H](C)O)C(=O)N[C@H](CO)C(=O)N[C@H](CCCCN)C(N)=O [Peptide D21, Ac-SWKSFLKTFSKAKKKALKTLLKAISK-amide] | 88.5 µg/mL and 29.3 µM | 
4 | 2.3 µM | 12.1 µM (≈ 37.1 µg/mL) | 5.13 | 15.6 µg/mL (≈ 5.09 µM) | 9.8 µg/mL | 31.3 µg/mL (≈ 10.2 µM) | 3.9 µg/mL (≈ 1.27 µM) | 3.9 µg/mL (≈ 1.27 µM) | 7.8 µg/mL (≈ 2.55 µM) | 15.6 µg/mL (≈ 5.09 µM) | 3.9 µg/mL (≈ 1.27 µM) | 7.0 µg/mL | 31.3 µg/mL (≈ 10.2 µM) | 15.6 µg/mL (≈ 5.09 µM) | 0.5 µg/mL (≈ 0.163 µM) | 3.9 µg/mL (≈ 1.27 µM) | 31.3 µg/mL (≈ 10.2 µM) | 0.8 µM (≈ 2.45 µg/mL) | 90.7 min and 90.67 min | CC[C@@H](C)[C@@H](NC(=O)[C@@H](C)NC(=O)[C@@H](CCCCN)NC(=O)[C@@H](CC(C)C)NC(=O)[C@@H](CC(C)C)NC(=O)[C@H](NC(=O)[C@@H](CCCCN)NC(=O)[C@@H](CC(C)C)NC(=O)[C@@H](C)NC(=O)[C@@H](CCCCN)NC(=O)[C@@H](CCCCN)NC(=O)[C@@H](CCCCN)NC(=O)[C@@H](C)NC(=O)[C@@H](CCCCN)NC(=O)[C@@H](CO)NC(=O)[C@@H](Cc1ccccc1)NC(=O)[C@H](NC(=O)[C@@H](CCCCN)NC(=O)[C@@H](CC(C)C)NC(=O)[C@@H](Cc1ccccc1)NC(=O)[C@@H](CO)NC(=O)[C@@H](CCCCN)NC(=O)[C@@H](Cc1c[nH]c2ccccc12)NC(=O)[C@@H](CCCCN)NC(C)=O)[C@H](C)O)[C@H](C)O)C(=O)N[C@H](CO)C(=O)N[C@H](CCCCN)C(N)=O [Peptide D22, Ac-KWKSFLKTFSKAKKKALKTLLKAISK-amide] | 249 µg/mL and 81.3 µM | Acinetobacter baumannii MICGM (Acinetobacter baumannii): 0.8 µM
